Data set [1] relates to Bovine viral diarrhea (BVD) virus. Description: Anti-BVDV CPE inhibition assay in MDBK cells. Particulars: for EC50: Bovine viral diarrhea virus isolates and strains, MDBK, in Bos taurus, 96 h; for SI (selectivity index, ratio of CC50 and EC50): CC50/EC50, MDBK cells, BVD virus.
Data set [2] in a line: Cytotoxicity in MDBK cells (no BVD virus added). The following applies: bovine, MDBK cells (Madin-Darby bovine kidney), no virus added.

Structures are written as SMILES.

This is an account of results in patent US12577242B2, “Pyrrolopyridine and imidazopyridine antiviral compounds” (KATHOLIEKE UNIVERSITEIT LEUVEN, priority 2020, dated 2026).

By EC50 is commonly meant the concentration needed to bring the measured effect to its halfway point. What is called CC50 is the concentration that lowers cell viability or growth by half. Low readings indicate harm at low concentration, high ones better tolerance by the cells. Consider `Cc1c(-c2cc3ccn(Cn4nnc5ccccc54)cc-3n2)cnn1C` [Compound VIII, 1-[(2-(1,5-dimethyl-1H-pyrazol-4-yl)-6H-pyrrolo[2,3-c]pyridin-6-yl)methyl]-1H-benzotriazole], for which, in data set [1], a half-maximal effect (EC50) was put at 0.335 ± 0.08 µM; the “SI (selectivity index, ratio of CC50 and EC50)” value is on record as over 149. The CC50 at 4 days in data set [2] is over 50 µM.

For `OCc1ccc2nc(Cn3ccc4nc(-c5ccccc5F)nc-4c3)sc2c1` [CPD-27, (2-((2-(2-fluorophenyl)-5H-imidazo[4,5-c]pyridin-5-yl)methyl)benzo[d]thiazol-6-yl)methanol], in data set [1], the response was half-maximal at 0.366 µM (EC50); the “SI (selectivity index, ratio of CC50 and EC50)” value is given as over 137. In data set [2], the CC50 at 4 days is over 50 µM.

Take `Cc1c(-c2nc3ccn(Cn4nnc5ccccc54)cc-3n2)cnn1C` [CPD-9, 1-((2-(1,5-dimethyl-1H-pyrazol-4-yl)-5H-imidazo[4,5-c]pyridin-5-yl)methyl)-1H-benzo[d][1,2,3]triazole]: in data set [1], the EC50 worked out at 0.346 ± 0.086 µM; the “SI (selectivity index, ratio of CC50 and EC50)” value was determined as 64. Also, in data set [2], the CC50 at 4 days was 22 µM.

With `COc1ncccc1-c1cc2cn(Cc3nc4ccc(C)cc4s3)ccc-2n1` [Compound XXXI, 2-{[2-(2-methoxypyridin-3-yl)-5H-pyrrolo[3,2-c]pyridin-5-yl]methyl}-6-methyl-1,3-benzothiazole], in data set [1], a half-maximal response (EC50) required 0.006 ± 0.006 µM; the “SI (selectivity index, ratio of CC50 and EC50)” value turned out to be 1667. The compound further showed a CC50 at 4 days in data set [2] of 10 µM.

Regarding `Fc1ccc(OC(F)(F)F)cc1-c1cc2cn(Cn3nnc4ccccc43)ccc-2n1` [Compound XVIII, 1-({2-[2-fluoro-5-(trifluoromethoxy)phenyl]-5H-pyrrolo[3,2-c]pyridin-5-yl}methyl)-1H-benzotriazole], in data set [1], the concentration giving a half-maximal response (EC50) is 0.076 ± 0.019 µM; the “SI (selectivity index, ratio of CC50 and EC50)” value is 158. In data set [2], this compound yielded a CC50 at 4 days of 12 µM.

As to `COc1ncccc1-c1nc2ccn(Cc3cc(-c4cc(F)ccc4F)no3)cc-2n1` [CPD-17, 3-(2,5-difluorophenyl)-5-((2-(2-methoxypyridin-3-yl)-5H-imidazo[4,5-c]pyridin-5-yl)methyl)isoxazole], in data set [1], the EC50 turned out to be 0.072 ± 0.002 µM; the “SI (selectivity index, ratio of CC50 and EC50)” value stood at 1389. The CC50 at 4 days in data set [2] turned out to be 100 µM.

Take `N#Cc1ccc(-c2cc3cn(Cn4nnc5ccccc54)ccc-3n2)cc1` [Compound XXII, 4-{5-[(1H-benzotriazol-1-yl)methyl]-5H-pyrrolo[3,2-c]pyridin-2-yl}benzonitrile]: in data set [1], the EC50 amounted to 0.007 ± 0.005 µM; the “SI (selectivity index, ratio of CC50 and EC50)” value was determined as 3000. The same compound displayed a half-maximal cytotoxic concentration (CC50) at 4 days in data set [2] of 21 µM.

For the compound `Cc1c(-c2nc3ccn(Cc4nc5ccc6ccccc6c5s4)cc-3n2)cnn1C` [CPD-6, 2-((2-(1,5-dimethyl-1H-pyrazol-4-yl)-5H-imidazo[4,5-c]pyridin-5-yl)methyl)naphtho[2,1-d]thiazole], in data set [1], the EC50 was found to be 0.014 ± 0.001 µM; the “SI (selectivity index, ratio of CC50 and EC50)” value is on record as over 3571. The CC50 at 4 days in data set [2] was over 50 µM.

As to `Cc1ccc2oc(Cn3ccc4nc(-c5ccccc5F)cc-4c3)nc2c1` [Compound XXV, 2-{[2-(2-fluorophenyl)-5H-pyrrolo[3,2-c]pyridin-5-yl]methyl}-5-methyl-1,3-benzoxazole], in data set [1], the 50% effective concentration (EC50) stood at 0.004 ± 0.002 µM; the “SI (selectivity index, ratio of CC50 and EC50)” value was found to be 1750. In data set [2], this compound gave a cytotoxic concentration (CC50) at 4 days of 7 µM.

In the case of `Cc1ccc2nc(Cn3ccc4nc(-c5cc(OCCO)ccc5F)nc-4c3)sc2c1` [CPD-41, 2-(4-fluoro-3-(5-((6-methylbenzo[d]thiazol-2-yl)methyl)-5H-imidazo[4,5-c]pyridin-2-yl)phenoxy)ethan-1-ol], in data set [1], a half-maximal response (EC50) required 0.223 ± 0.143 µM; the “SI (selectivity index, ratio of CC50 and EC50)” value is reported as over 224. The 50% cytotoxic concentration (CC50) at 4 days in data set [2] is over 50 µM.

In the case of `OCCOc1ccc(F)c(-c2cc3ccn(Cn4nnc5ccccc54)cc-3n2)c1` [Compound III, 2-(3-{6-[(1H-benzotriazol-1-yl)methyl]-6H-pyrrolo[2,3-c]pyridin-2-yl}-4-fluorophenoxy)ethan-1-ol], in data set [1], the EC50 is 0.019 ± 0.007 µM; the “SI (selectivity index, ratio of CC50 and EC50)” value is 1158. Besides, the midpoint of cytotoxicity in data set [2], the CC50 at 4 days, lay at 22 µM.

For `Fc1ccccc1-c1nc2ccn(Cn3nnc4ccccc43)cc-2n1` [CPD-38, 1-((2-(2-fluorophenyl)-5H-imidazo[4,5-c]pyridin-5-yl)methyl)-1H-benzo[d][1,2,3]triazole], in data set [1], the 50% effective concentration (EC50) stood at 0.336 ± 0.103 µM; the “SI (selectivity index, ratio of CC50 and EC50)” value is over 149. The CC50 at 4 days in data set [2] was over 50 µM.

In the case of `OCc1ccccc1-c1cc2cn(Cn3nnc4ccccc43)ccc-2n1` [Compound XXI, (2-(5-((1H-Benzotriazol-1-yl)methyl)-5H-pyrrolo[3,2-c]pyridin-2-yl)phenyl)methanol], in data set [1], the concentration for a half-maximal effect (EC50) was determined as 0.387 ± 0.022 µM; the “SI (selectivity index, ratio of CC50 and EC50)” value is over 129. In addition, the CC50 at 4 days in data set [2] was over 50 µM.

Consider `Fc1ccccc1-c1nc2ccn(Cc3nc4ccc(Cl)cc4s3)cc-2n1` [CPD-25, 6-chloro-2-((2-(2-fluorophenyl)-5H-imidazo[4,5-c]pyridin-5-yl)methyl)benzo[d]thiazole], for which, in data set [1], the response was half-maximal at 0.078 ± 0.004 µM (EC50); the “SI (selectivity index, ratio of CC50 and EC50)” value is listed as over 641. This compound registered a 50% cytotoxic concentration (CC50) at 4 days in data set [2] of over 50 µM.

In the case of `Fc1ccc(-c2cc(Cn3ccc4nc(-c5ccccc5F)nc-4c3)on2)c(F)c1` [CPD-34, 3-(2,4-difluorophenyl)-5-((2-(2-fluorophenyl)-5H-imidazo[4,5-c]pyridin-5-yl)methyl)isoxazole], in data set [1], the EC50 amounted to 0.092 ± 0.049 µM; the “SI (selectivity index, ratio of CC50 and EC50)” value is reported as over 543. The compound further yielded a CC50 at 4 days in data set [2] of over 50 µM.

On to `Cc1ccc2sc(Cn3ccc4nc(-c5cnn(C)c5C)nc-4c3)nc2c1` [CPD-2, 2-((2-(1,5-dimethyl-1H-pyrazol-4-yl)-5H-imidazo[4,5-c]pyridin-5-yl)methyl)-5-methylbenzo[d]thiazole], for which, in data set [1], a half-maximal effect (EC50) was put at 0.079 ± 0.004 µM; the “SI (selectivity index, ratio of CC50 and EC50)” value is given as over 633. The cytotoxic concentration (CC50) at 4 days in data set [2] is over 50 µM.

In the case of `COc1ccccc1-c1cc2ccn(Cn3nnc4ccccc43)cc-2n1` [Compound IV, 1-{[2-(2-methoxyphenyl)-6H-pyrrolo[2,3-c]pyridin-6-yl]methyl}-1H-benzotriazole], in data set [1], a half-maximal response (EC50) required 0.008 ± 0.005 µM; the “SI (selectivity index, ratio of CC50 and EC50)” value is recorded as 2750. In data set [2], the midpoint of cytotoxicity, the CC50 at 4 days, lay at 22 µM.

For `COc1ncccc1-c1nc2ccn(Cc3nc4ccc(C)cc4s3)cc-2n1` [CPD-14, 2-((2-(2-methoxypyridin-3-yl)-5H-imidazo[4,5-c]pyridin-5-yl)methyl)-6-methylbenzo[d]thiazole], in data set [1], it took 0.02 ± 0.004 µM to reach a half-maximal effect (EC50); the “SI (selectivity index, ratio of CC50 and EC50)” value is reported as over 2500. This compound registered a CC50 at 4 days in data set [2] of over 50 µM.

Regarding `Cc1ccc2oc(Cn3ccc4nc(-c5ccccc5CO)cc-4c3)nc2c1` [Compound XXVI, (2-(5-((5-methyl-1,3-benzoxazol-2-yl)methyl)-5H-pyrrolo[3,2-c]pyridin-2-yl)phenyl)methanol], in data set [1], it took 0.311 ± 0.078 µM to reach a half-maximal effect (EC50); the “SI (selectivity index, ratio of CC50 and EC50)” value was 71. The compound further gave a CC50 at 4 days in data set [2] of 22 µM.

For `Cc1ccc2sc(Cn3ccc4nc(-c5cn(C)nc5C)nc-4c3)nc2c1` [CPD-11, 2-((2-(1,3-dimethyl-1H-pyrazol-4-yl)-5H-imidazo[4,5-c]pyridin-5-yl)methyl)-5-methylbenzo[d]thiazole], in data set [1], it took 0.3 ± 0.1 µM to reach a half-maximal effect (EC50); the “SI (selectivity index, ratio of CC50 and EC50)” value is on record as over 167. In addition, the half-maximal cytotoxic concentration (CC50) at 4 days in data set [2] was over 50 µM.

For `Fc1ccccc1-c1nc2ccn(Cc3nc4cc(Cl)ccc4s3)cc-2n1` [CPD-26, 5-chloro-2-((2-(2-fluorophenyl)-5H-imidazo[4,5-c]pyridin-5-yl)methyl)benzo[d]thiazole], in data set [1], the EC50 is 0.096 ± 0.006 µM; the “SI (selectivity index, ratio of CC50 and EC50)” value is recorded as over 521. The CC50 at 4 days in data set [2] is over 50 µM.

With `Cc1ccc2nc(Cn3ccc4cc(-c5ccccc5CO)nc-4c3)sc2c1` [Compound XIII, (2-{6-[(6-methyl-1,3-benzothiazol-2-yl)methyl]-6H-pyrrolo[2,3-c]pyridin-2-yl}phenyl)methanol], in data set [1], the EC50 came to 0.009 ± 0.008 µM; the “SI (selectivity index, ratio of CC50 and EC50)” value amounted to 2000. In data set [2], half-maximal cytotoxicity (CC50 at 4 days) was put at 18 µM.

As for `Fc1ccccc1-c1nc2ccn(Cc3ncc(-c4ccccc4)s3)cc-2n1` [CPD-28, 2-((2-(2-fluorophenyl)-5H-imidazo[4,5-c]pyridin-5-yl)methyl)-5-phenylthiazole], in data set [1], the half-maximal effective concentration (EC50) came out at 0.082 µM; the “SI (selectivity index, ratio of CC50 and EC50)” value is on record as over 610. The compound also returned a half-maximal cytotoxic concentration (CC50) at 4 days in data set [2] of over 50 µM.

For the compound `Cc1ccc2oc(Cn3ccc4nc(-c5cn(C)nc5C)nc-4c3)nc2c1` [CPD-12, 2-((2-(1,3-dimethyl-1H-pyrazol-4-yl)-5H-imidazo[4,5-c]pyridin-5-yl)methyl)-5-methylbenzo[d]oxazole], in data set [1], the 50% effective concentration (EC50) came to 0.256 ± 0.111 µM; the “SI (selectivity index, ratio of CC50 and EC50)” value is given as over 195. The compound also had a cytotoxic concentration (CC50) at 4 days in data set [2] of over 50 µM.

Turning to `COc1ncccc1-c1cc2ccn(Cn3nnc4ccccc43)cc-2n1` [Compound VII, 1-{[2-(2-methoxypyridin-3-yl)-6H-pyrrolo[2,3-c]pyridin-6-yl]methyl}-1H-benzotriazole], in data set [1], the half-maximal effective concentration (EC50) worked out at 0.016 ± 0.001 µM; the “SI (selectivity index, ratio of CC50 and EC50)” value was 1375. The same compound gave a cytotoxic concentration (CC50) at 4 days in data set [2] of 22 µM.

For `Cc1ccc2nc(Cn3ccc4nc(-c5ccccc5CO)nc-4c3)sc2c1` [CPD-45, (2-(5-((6-methylbenzo[d]thiazol-2-yl)methyl)-5H-imidazo[4,5-c]pyridin-2-yl)phenyl)methanol], in data set [1], the EC50 stood at 0.297 ± 0.107 µM; the “SI (selectivity index, ratio of CC50 and EC50)” value is given as over 168. The compound further yielded a 50% cytotoxic concentration (CC50) at 4 days in data set [2] of over 50 µM.

On to `Cc1ccc2oc(Cn3ccc4cc(-c5ccccc5F)nc-4c3)nc2c1` [Compound IX, 2-{[2-(2-fluorophenyl)-6H-pyrrolo[2,3-c]pyridin-6-yl]methyl}-5-methyl-1,3-benzoxazole], for which, in data set [1], the EC50 was 0.0012 ± 0.0015 µM; the “SI (selectivity index, ratio of CC50 and EC50)” value was 4167. Further, in data set [2], the CC50 at 4 days stood at 5 µM.
